Data set [1] can be described thus: Solubility of peptide. The class given is physicochemical.
For data set [2], the system named is DR3DQ2×RIP-B7.1 mice. Nature of the data set: Adjuvanted antigen priming (disease acceleration), diabetes monitoring. The data set is classed as in vivo. The text has this: Mice were monitored weekly for diabetes up to 20 weeks post prime. The grey dotted line indicates the expected level of spontaneous diabetes in mice aged 12 weeks on day 0 of the experiments (based on the data in FIG. 1 and normalised for gender). Statistical analysis with Mantel-Cox Log-rank test. **p<0.01, ***p<0.001. • (b-e) Blood glucose levels for each individual mouse in the group immunised with PBS (b), murine proinsulin-2 peptides (c), human GAD65 (d) or fragment of human IA-2 (e).
Mice were monitored weekly for diabetes up to 20 weeks post prime. The grey dotted line indicates the expected level of spontaneous diabetes in mice aged 8 weeks on day 0 of the experiment, based on the data in FIG. 1 and normalised for gender. Statistical analysis with Mantel-Cox Log-rank test. ***p<0.001 for B23-C20 versus B1-30 or C10-A6. ? p<0.01 for B23-C20 versus C25-A21. Rest not significant. • (b-e) Blood glucose levels for each individual mouse in the group immunised with B1-30 (b), B23-C20 (c), C10-A6 (d) or C25-A21 (e).
(a) DR3DQ2×RIP-B7.1 mice aged 10-14 weeks were challenged with 100 μg of either GP-15 (2 ♂3♀), YA-15 (2 ♂3♀), ME-15 (3 ♂2♀), RG-15 (3 ♂2♀), DA-15 (2 ♂3♀) or VD-14 (3♂2♀) peptide in TiterMax Gold adjuvant s.c. on days 0 and 14, with 200 ng pertussis toxin administered i.p on days 0 and 1 or 2. Mice were monitored weekly for diabetes up to 20 weeks post prime. The grey dotted line indicates the expected level of spontaneous diabetes in mice aged 14 weeks on day 0 of the experiments (based on the data in FIG. 1 and normalised for gender). Statistical analysis with Mantel-Cox Log-rank test. *p<0.05 for RG-15 versus YA-15, **p<0.01 for ME-15 versus GP-15, YA-15 or VD-14. ? p<0.05 for ME-15 versus DA-15. Rest not significant. (b-f) Blood glucose levels for each individual mouse in the group immunised with GP-15 (b), YA-15 (c), ME-15 (d), RG-15 (e), DA-15 (f), VD-14 (g).
HLA-DR3-DQ2-transgenic (B6.hCD4.DR3-DQ2.MHCII^−/− mice (described previously (de Kauwe A L et al. (2009) J Immunol 182(12): 7440-7450), and obtained from J. McCluskey) were crossed with RIP-B7.1-transgenic animals (B6.Cg-Tg(Ins2-CD80)3B7Flv/Orl, EMMA, Orleans, France; ID 00216) in order to obtain HLA-DR3-DQ2^+huCD4^+IA/IE^−/−RIP.B7.1^+ mice, hereafter referred to as DR3DQ2×RIP-B7.1. DR4×RIP-B7.1 mice, generated by crossing B6.129S2-H2-Ab1^tm/Gru Tg(HLA-DRA/H2-Ea,HLA-DRB1*0401/H2-Eb) 1Kito mice with B6.Cg-Tg(Ins2-CD80)3B7Flv/Orl, were described previously (Verhagen J, et al. (2018) Sci Rep 8(1): 14106). All animals were kept under specific-pathogen-free conditions, in individually ventilated cages, at the KCL Biological Services Unit on 12-hour light/dark cycles with food and water provided ad libitum. Experiments were conducted in accordance with UK Home Office regulations under a project license held by M. Peakman. All work was subject to assessment and approved locally by Guy's animal welfare and ethical review board (AWERB).
All mice were monitored regularly for unprovoked glycosuria using Diastix strips (Bayer, Basel, Switzerland). Some mice were monitored weekly for hyperglycaemia, from the age of 6-7 weeks, by a minimal puncture of the tail vein at alternate sides of the tail and analysis using a OneTouch Verio meter and strips (Lifescan, High Wycombe, UK), in order to closely monitor progression towards spontaneous diabetes. Mice were considered diabetic following a blood glucose reading >16.7 mmol/l (300 mg/dl) in addition to confirmed glycosuria. […] Mice (aged 6-14 weeks) were primed with 100 μg of peptides or protein in TiterMax Gold adjuvant (TiterMax, Norcross, GA, USA) subcutaneously (s.c.) at the base of the tail and received a second dose s.c. distributed over the inguinal region on day 14. Mice received 200 ng Pertussis toxin (Sigma, Poole, UK) in PBS intraperitoneally (i.p.) on days 0 and 1 or 2. Mice were then monitored weekly for hyperglycaemia and for glycosuria. […]

Data set [3] has as its system human peripheral blood mononuclear cells (PBMCs). Nature of the data set: ELISPOT assay of cytokine responses to proinsulin peptides. The data set is classed as cell-based. The following applies: 10 μg/ml peptide, 48 hours. An excerpt:
Responses to proinsulin B30-C13 in human donors. PBMC from individuals with either HLA-DR3-DQ2 (a) or any other haplotype (b) were stimulated in vitro with human proinsulin-derived peptide B30-C13 or C19-A3 prior to detection of IFNγ by ELISPOT assay. HLA-DR3-DQ2 individuals, n=3; non-HLA-DR3-DQ2, n=6. *p<0.05, ratio paired t test.
Responses to proinsulin B23-C20, B29-C11, B29-C14, B30-C13 and C-1-C14 peptides are shown. PBMCs from 5 type 1 diabetes patients with HLA-DR3-DQ2 (identified as #1-#5) were stimulated in vitro with human proinsulin-derived peptides B23-C20, B29-C11, B29-C14, B30-C13 and C−1-C14 prior to detection of IFN-γ and IL-17 (pro-inflammatory responses) and IL-10 (regulatory response) by ELISPOT assay. […]
ELISPOT assays were carried out using human peripheral blood mononuclear cells (PBMCs) isolated from fresh heparinized blood. […] The cytokine secretion assay was performed using the IFN-γ, IL-17 and IL-10 ELISPOT kits (U-CyTech) according to the manufacturer's instructions and plates were analysed using an automated ELISPOT Bioreader 6000 (Bio-Sys) and relevant software. Data are expressed as the total number of spots in triplicate wells after peptide stimulation divided by the total number of spots in diluent only control wells (stimulation index [SI]) or as responder CD4 T cells/10^6 PBMCs.

Data set [4] concerns RIP.CD80×DR3DQ2 mice. As to the kind of experiment: Tolerance induction against accelerated diabetes. The data set is classed as in vivo. The following applies: 10 μg soluble peptide s.c., 6 injections, before and after priming with murine B23-C20 in adjuvant; ME-15 versus YA-15 p<0.01, versus VD-14 p<0.05. As for the experimental part: FIG. 6 Tolerance induction against accelerated diabetes in RIP.CD80×DR3DQ2 mice. (a) Schedule of dosing. Mice aged 7-8 weeks (n=7 per group) were treated with soluble 14/15-mer peptide in PBS subcutaneously (s.c.) before and after acceleration of diabetes development by antigenic priming with 30-mer murine proinsulin-2 peptide B23-C20 in TiterMax Gold adjuvant on days 0 and 14. Pertussis toxin administered intraperitoneally (i.p.) on days 0 and 2. (b) Diabetes incidence in mice treated with 14/15-mer peptide ME-15 (1♀6♂), YA-15 (4♀3♂) or VD-14 (3♀4♂). Statistical analysis with Mantel-Cox Log-rank test. ME-15 versus YA-15, p<0.01; ME versus VD-14, p<0.05.
All mice were monitored regularly for unprovoked glycosuria using Diastix strips (Bayer, Basel, Switzerland). Some mice were monitored weekly for hyperglycaemia, from the age of 6-7 weeks, by a minimal puncture of the tail vein at alternate sides of the tail and analysis using a OneTouch Verio meter and strips (Lifescan, High Wycombe, UK), in order to closely monitor progression towards spontaneous diabetes. Mice were considered diabetic following a blood glucose reading >16.7 mmol/l (300 mg/dl) in addition to confirmed glycosuria. […] Mice were then monitored weekly for hyperglycaemia and for glycosuria. […]

The mark [5] stands for this setting: adjuvanted priming, follow up to 20 weeks post prime.

Where no end group is shown, it is not given here.

Regarding “REVEDPQVAQLELGG [RG-15, REVEDPQVAQLELGG]”, the “solubility in aqueous solution” value in data set [1] (aqueous solution) is “highly insoluble”. In data set [1] (dimethyl sulfoxide), the “solubility in dimethyl sulfoxide” value is given as “soluble”.
With “GAD65: Recombinant human GAD65 (T-cell GAD) purchased from Diamyd Medical”, the “diabetes acceleration / incidence versus control or spontaneous onset (in words)” value in data set [2] (setting [5]) is “only priming with proinsulin peptides clearly hastened diabetes onset and increased incidence”.
Consider “DPQVAQLELGGGPGA (listed as Mus musculus) [DA-15, murine proinsulin-2 15-mer]”, for which the “diabetes acceleration / incidence versus control or spontaneous onset (in words)” value in data set [2] (setting [5]) was “cannot”.
For the substance “TRREAEDLQVGQVELG (listed as Homo sapiens) [B30-C13, fragment of human proinsulin, residues B30-C13]”, the “IFNγ ELISPOT response, HLA-DR3-DQ2 donors versus donors without this haplotype” value in data set [3] (HLA-DR3-DQ2 n=3, non-HLA-DR3-DQ2 n=6) was “greater response”. In addition, in data set [3] (p<0.05 ratio paired t test), the “IFNγ ELISPOT response versus control peptide C19-A3” value is on record as “greater than that to our control peptide C19-A3”.
Take “MSRREVEDPQVAQLE (listed as Mus musculus) [ME-15]”: the “diabetes acceleration / incidence versus control or spontaneous onset (in words)” value in data set [2] (setting [5]) is “markedly higher disease incidence during follow up than would be expected spontaneously”. Further, the “tolerogenic effect on diabetes induced with B23-C20” value in data set [4] was “tolerogenic effect”.
Take “VAQLELGGGPGAGD (listed as Mus musculus) [VD-14, murine proinsulin-2 14-mer]”: the “diabetes acceleration / incidence versus control or spontaneous onset (in words)” value in data set [2] (setting [5]) is reported as “cannot”.
For “GFFYTPMSRREVEDPQVAQLELGGGPGAGD (listed as Mus musculus) [B23-C20, murine 30-mer proinsulin-2 peptide B23-C20]”, in data set [2] (100 μg in TiterMax Gold adjuvant s.c. days 0 and 14, pertussis toxin), the “mean time of onset of diabetes (SD)” value was determined as 49±16.2 days post prime. Also, the diabetes incidence in data set [2] (by day 84 post prime, 100 μg in TiterMax Gold adjuvant) worked out at 100%. Further, the “diabetes acceleration / incidence versus control or spontaneous onset (in words)” value in data set [2] (mouse, in vivo) is “most overt disease exacerbation, with very rapid development of diabetes”.

(Values after US20230348562A1, “Proinsulin Peptides for Type I Diabetes” (King's College London, priority 2019, published 2023).)
